Source: US9849110B2, “Intermittent fibrate administration method” (Biocopea Limited, priority 2012, dated 2017)

What was measured:
[1] = meta-analysis of clinical trials; cited from earlier work
[2] = Example 5: blood test of LDL, HDL and cholesterol levels, periodic treatment with gemfibrozil, person; assay type: in vivo, human
Procedure: A person visits their physician and during the visit undergoes a blood test. The person is found to have an LDL level of 74 mg/dl, HDL level of 32 mg/dl and a cholesterol level of 311 mg/dl. The physician prescribes gemfibrozil at an initial dose of 600 mg taken orally for one week followed by a one month break, followed by a week of taking gemfibrozil followed by a month break, which schedule is repeated thereafter. To remind the person to take gemfibrozil after the monthly break, the physician inputs the days that the person is to take gemfibrozil and arranges for the person to receive text messages through their cell phone and a telephone call to remind them to take gemfibrozil. One month after taking the first weeks dose of gemfibrozil, the person receives a reminder by text to take the second weeks dose of gemfibrozil. This repeats on a monthly basis. The person returns to the physician for a follow on blood test six months later and they are found to have LDL level of 101 mg/dl, HDL level of 41 mg/dl and a cholesterol level of 211 mg/dl. The physician recommends that the person continue to take gemfibrozil for a week followed by a month break, which the person does on a repeated basis. A year later the person returns to the physician for a blood test.

[3] = Example 2: blood test of LDL, HDL and cholesterol levels, periodic treatment with atorvastatin, person; assay type: in vivo, human; conditions: 40 mg orally, one week on / a month off, after six months
[4] = as above; assay type: in vivo, human; conditions: for HDL level / LDL level / cholesterol level: one week on / two months off
Procedure: A person visits their physician and during the visit undergoes a blood test. The person is found to have an LDL level of 92 mg/dl, HDL level of 41 mg/dl and a cholesterol level of 212 mg/dl. […] To remind the person to take atorvastatin after the monthly breaks, they download an application to their smart phone and inputs the first day they are to take atorvastatin and the application automatically determines the day a month after stopping taking atorvastatin that they are to start taking the atorvastatin again. A month after taking the first weeks dose of atorvastatin, the person receives a reminder from the application on their smart phone to take the second dose of atorvastatin. This repeats on a monthly basis. The person returns to the physician for a follow on blood test six months later and they are found to have LDL level of 120 mg/dl, HDL level of 45 mg/dl and a cholesterol level of 161 mg/dl. At this point the physician changes the frequency of the breaks between week of dosing to every two months, while maintaining the dose of 20 mg. The person inputs the new schedule into the application on their smart phone and they are reminded to take atorvastatin every two month by the application. Six months later, the person returns to the physician for a blood test. […] The physician recommends that the person continue to take atorvastatin for a week followed by a two month break, which the person does. A year later the person returns to the physician for a blood test. […] The person continues taking the atorvastatin for a week every two months for the rest of their life, with their LDL levels ranging from 115-120, HDL levels ranging from 45-51 and their cholesterol levels ranging from 151-162.

[5] = Example 3: blood test of LDL, HDL and cholesterol levels, periodic treatment with fluvastatin, person; assay type: in vivo, human
Procedure: A person visits their physician and during the visit undergoes a blood test. The person is found to have an LDL level of 87 mg/dl, HDL level of 41 mg/dl and a cholesterol level of 266 mg/dl. […] To remind the person to take fluvastatin following the two month breaks, the physician inputs the days that the person is to take fluvastatin and arranges for the person to receive text messages through Skype that the person will receive on their cell phone and their personal computer. Two months after taking the first weeks dose of atorvastatin, the person receives a reminder by text to take the second weeks dose of atorvastatin two months later. This repeats every two months. The person returns to the physician for a follow on blood test six months later and they are found to have LDL level of 112 mg/dl, HDL level of 47 mg/dl and a cholesterol level of 188 mg/dl. At this point the physician changes the frequency of dosing to one week taking fluvastatin followed by a break of three months at a dose of 40 mg, with this schedule repeating thereafter. The physician inputs the new schedule so that the person receives text messages every three months to restart taking fluvastatin. A year later, the person returns to the physician for a blood test. […] The physician recommends that the person continue to take fluvastatin for a week followed by a three month break and repeating this schedule thereafter, which the person does. A year later the person returns to the physician for a blood test. […] The person continues taking the atorvastatin for a week followed by a three month break and repeating this schedule for the rest of their life, with their LDL levels ranging from 115-120, HDL levels ranging from 45-51 and their cholesterol levels ranging from 151-162.

[6] = Example 4: blood test of LDL, HDL and cholesterol levels, periodic treatment with lovastatin, person; assay type: in vivo, human
Procedure: A person visits their physician and during the visit undergoes a blood test. The person is found to have an LDL level of 91 mg/dl, HDL level of 40 mg/dl and a cholesterol level of 222 mg/dl. […] To remind the person to take lovastatin after each four month break, the physician inputs the days that the person is to take lovastatin and arranges for the person to receive a letter by postal mail to remind them to take the lovastatin. Four months after taking the first weeks dose of lovastatin, the person receives a reminder by postal mail to take the second weeks dose. This repeats on an every four month basis. The person returns to the physician for a follow on blood test one year later and they are found to have LDL level of 109 mg/dl, HDL level of 45 mg/dl and a cholesterol level of 184 mg/dl. The person continues taking the atorvastatin for a week followed by a break of four months, which they repeat for the rest of their life, with their LDL levels ranging from 115-120, HDL levels ranging from 45-51 and their cholesterol levels ranging from 151-162.

[7] = 600 mg orally, one week on / one month off, after six months
[8] = one week on / one month off, a year later
[9] = one week on / one month off, for the rest of their life, in mg/dL
[10] = a week every two months, for the rest of their life, in mg/dL
[11] = dose of 20 mg, after six months
[12] = once monthly administration (so in the source)
[13] = one week on / three month break, for the rest of their life, in mg/dL
[14] = one week on / four months off, for the rest of their life, in mg/dL
[15] = 40 mg, one week on / four months off, one year later

In the case of COCc1c(C(C)C)nc(C(C)C)c(/C=C/[C@@H](O)C[C@@H](O)CC(=O)O)c1-c1ccc(F)cc1 [cerivastatin], the rhabdomyolysis [1] is listed as “rhabdomyolysis did not occur”.
For Cc1ccc(C)c(OCCCC(C)(C)C(=O)O)c1 [gemfibrozil], the HDL level [2, 7] was 41 mg/dL, the LDL level [2, 7] was 101 mg/dL and the cholesterol level [2, 7] was 211 mg/dL. The HDL level [2, 8] was 44 mg/dL, the LDL level [2, 8] was 106 mg/dL and the cholesterol level [2, 8] was 191 mg/dL. For the same molecule, the HDL levels ranging [2, 9] was 45-51, the LDL levels ranging [2, 9] was 115-120 and the cholesterol levels ranging [2, 9] was 151-162.
CC(C)c1c(C(=O)Nc2ccccc2)c(-c2ccccc2)c(-c2ccc(F)cc2)n1CC[C@@H](O)C[C@@H](O)CC(=O)O [atorvastatin] gave an HDL level [3] of 45 mg/dL, an LDL level [3] of 120 mg/dL and a cholesterol level [3] of 161 mg/dL. The HDL levels ranging [4, 10] was 45-51, the LDL levels ranging [4, 10] was 115-120 and the cholesterol levels ranging [4, 10] was 151-162. The HDL level [4, 11] was 48 mg/dL, the LDL level [4, 11] was 120 mg/dL and the cholesterol level [4, 11] was 160 mg/dL. The “maintaining normal levels of LDL, HDL and cholesterol” value (shortened to “maintaining normal levels of LDL”) [4, 12] was “successful at maintaining normal levels of LDL, HDL and cholesterol”, the HDL level ([4]; a year later) was 48 mg/dL and the LDL level ([4]; a year later) was 118 mg/dL. The cholesterol level ([4]; a year later) was 161 mg/dL, the “maintaining normal levels of LDL” value [5, 12] was “successful at maintaining normal levels of LDL, HDL and cholesterol” and the HDL levels ranging [5, 13] was 45-51. For the same molecule, the LDL levels ranging [5, 13] was 115-120, the cholesterol levels ranging [5, 13] was 151-162 and the “maintaining normal levels of LDL” value ([2]; once monthly administration) was “successful at maintaining normal levels of LDL, HDL and cholesterol”. For the same molecule, the HDL levels ranging [6, 14] was 45-51, the LDL levels ranging [6, 14] was 115-120 and the cholesterol levels ranging [6, 14] was 151-162.
With CC[C@H](C)C(=O)O[C@H]1C[C@@H](C)C=C2C=C[C@H](C)[C@H](CC[C@@H]3C[C@@H](O)CC(=O)O3)[C@H]21 [lovastatin] the HDL level [6, 15] was 45 mg/dL, the LDL level [6, 15] was 109 mg/dL and the cholesterol level [6, 15] was 184 mg/dL. The “maintaining normal levels of LDL” value ([6]; once every four month administration) was “successful at maintaining normal levels of LDL, HDL and cholesterol”.
